{"source": "patent US9700525B2", "about": "“Continuous local slow-release of therapeutics for head and neck problems and upper aerodigestive disorders” (Board of Supervisors of Louisiana State University and …, priority 2008, dated 2017)", "key": {"[1]": {"test_system": "Akt/mTOR pathway", "assay": "Model of minimal residual disease", "type": "in vivo"}, "[2]": {"test_system": "mTOR pathway markers", "conditions": "tumors and PBMCs of HNSCC patients; cited from earlier work"}, "[3]": {"test_system": "HNSCC cell lines", "assay": "Inhibition of cell proliferation in HNSCC cell lines", "type": "cell-based", "description": "While curcumin can be used to treat these cancers, other compounds that act on these pathways may also be useful in treating these cancers and it should be readily recognized that such compounds could also be delivered by including in the formulations described herein."}, "[4]": {"test_system": "normal fibroblast cell line CCL110", "assay": "Effect on proliferation of normal fibroblast cell line", "type": "cell-based"}, "[5]": {"test_system": "NFκB and Akt/mTOR pathways", "assay": "Modulation of NFκB and Akt/mTOR pathways in cell lines (western blot)", "type": "cell-based"}, "[6]": {"test_system": "SCC40 xenografts", "assay": "Akt/mTOR pathway markers in SCC40 xenografts of treated mice", "type": "in vivo", "conditions": "mice with SCC40 xenografts treated with curcumin"}, "[7]": {"test_system": "tumor cells", "assay": "Chemoprevention model: pre-treatment before tumor cell injection, tumor volumes", "type": "in vivo, Balb/c nu/nu mice", "conditions": "pre-treated 4 days prior to injecting tumor cells", "method": "Balb/c nu/nu mice were randomized into treatment groups. […] Tumors were measured over approximately three weeks. […] ANOVA analysis. […] This also points to its role as a chemopreventive agent rather than a therapeutic agent."}, "[8]": {"test_system": "TPA-induced tumors", "conditions": "topical application of 10 μmol twice weekly; cited from earlier work"}, "[9]": {"test_system": "DMBA-induced oral tumors", "conditions": "10 μmol topically 3 times/week for 24 weeks; cited from earlier work"}, "[10]": {"test_system": "prostate cancer xenograft", "conditions": "p.o. gavage 5 mg/day, 5 days/week for 4 weeks; cited from earlier work"}, "[11]": {"conditions": "following oral administration; cited from earlier work"}}}
{"smiles": "CO[C@H]1C[C@@H]2CC[C@@H](C)[C@@](O)(O2)C(=O)C(=O)N2CCCC[C@H]2C(=O)O[C@H]([C@H](C)C[C@@H]2CC[C@@H](OC(=O)C(C)(CO)CO)[C@H](OC)C2)CC(=O)[C@H](C)/C=C(\\C)[C@@H](O)[C@@H](OC)C(=O)[C@H](C)C[C@H](C)/C=C/C=C/C=C/1C", "note": "[CCI-779, temsirolimus]", "values": [{"measurement": "survival", "setting": "[1]", "result": "improve survival"}, {"measurement": "tumor formation", "setting": "[1]", "result": "inhibit tumor formation"}, {"measurement": "modulation of mTOR pathway markers", "setting": "[2]", "result": "modulation of these markers"}]}
{"smiles": "COc1cc(/C=C/C(=O)CC(=O)/C=C/c2ccc(O)c(OC)c2)ccc1O", "note": "[curcumin]", "values": [{"measurement": "growth inhibitory effect", "setting": "[3]; all 10 HNSCC cell lines tested to date", "result": "growth inhibitory effects"}, {"measurement": "growth inhibitory effect", "setting": "[3]; three HNSCC cell lines, 10 μM, 48 hours", "result": "significant growth inhibitory effects"}, {"measurement": "concentration giving consistent inhibition of cell proliferation", "setting": "[3]; variety of HNSCC cell lines, in vitro", "result": "less than 10 μM"}, {"measurement": "dose required to see effects", "setting": "[4]", "result": "20 to 40", "unit": "µM"}, {"measurement": "change in pNFκB", "setting": "[5]; PCI15a cells, 10 μM, 24 and 48 hours", "result": "no change"}, {"measurement": "change in pAkt", "setting": "[5]; PCI15a cells, 10 μM, 48 hours", "result": "down-regulated"}, {"measurement": "change in pS6 downstream of mTOR", "setting": "[5]; PCI15a cells, 10 μM, 48 hours", "result": "down-regulated"}, {"measurement": "change in the Akt/mTOR pathway", "setting": "[5]; SCC40 cells, 10 μM", "result": "no change"}, {"measurement": "change in pNFκB", "setting": "[5]; SCC40 cells, 10 μM, 48 hours", "result": "down-regulation"}, {"measurement": "modulation of the Akt/mTOR pathway", "setting": "[5]; SCC066 cells, 10 μM", "result": "did not show any modulation"}, {"measurement": "change in pNFκB or Akt/mTOR", "setting": "[5]; normal fibroblast cell line CCL110, 10 μM", "result": "no decrease"}, {"measurement": "change in pAkt", "setting": "[6]", "result": "significant decrease"}, {"measurement": "change in pS6", "setting": "[6]", "result": "significant decrease"}, {"measurement": "difference in tumor volumes vs control (vehicle treated)", "setting": "[7]; 10 mg", "result": "no significant difference"}, {"measurement": "difference in tumor volumes vs control (vehicle treated)", "setting": "[7]; 15 mg, about three weeks", "result": "statistically significant difference"}, {"measurement": "inhibition of the number of tumors per mouse", "setting": "[8]", "result": 98, "unit": "%"}, {"measurement": "reduction of the number of DMBA-induced oral tumors", "setting": "[9]", "result": "~40", "unit": "%"}, {"measurement": "inhibition of growth of prostate cancer xenograft", "setting": "[10]", "result": "~50", "unit": "%"}, {"measurement": "bioavailability", "setting": "[11]", "result": "low bioavailability"}]}
